{"source": "patent US20060167094A1", "about": "“Satiety agent” (priority 2005, published 2006)", "key": {"plasma CCK": {"tested_on": "plasma CCK", "test": "Plasma CCK concentrations by radioimmunoassay", "type": "in vivo, human", "description": "(§1) Once the catheter was positioned correctly, fasting motility was monitored until the occurrence of phase III of the interdigestive migrating motor complex (MMC). Immediately after the cessation of phase III activity [at time t=−15 min], a baseline venous blood sample was taken, and a visual analog scale questionnaire (VAS) (see Measurements), assessing appetite-related sensations, was administered. At t=0 min (i.e., during phase I of the MMC), the duodenal infusion of 1) C12, 2) C10, or 3) control solution was commenced and continued for 90 min. APD pressures were monitored throughout the infusion period; blood samples were taken, and the VAS administered every 15 min from t=0 min until t=90 min. At t=90 min, the infusion was terminated, and the subject was immediately extubated and offered a cold buffet-style meal, the composition of which is provided in Table 1. The amount of food offered was in excess of what the subject was expected to consume. The subject was given 30 min (i.e., t=90 min to t=120 min) to consume the meal and instructed to eat until comfortably full. After ingestion of the meal, the subject was monitored for a further 30 min, a further VAS was completed, and blood samples were taken at t=120 and 150 min. The intravenous cannula was then removed, and the subject was allowed to leave the laboratory.\nVenous blood samples (10 ml) were collected in ice-chilled EDTA-treated tubes containing 400 kIU aprotinin (Trasylol, Bayer Australia) per millilitre of blood. Plasma was separated by centrifugation (3,200 rpm, 15 min, 4° C.) within 30 min of collection and stored at −70° C. until assayed.\nPlasma CCK concentrations (in pmol/l) were determined after ethanol extraction using a previously described radioimmunoassay (3). A commercially available antibody (C258, Lot 105H4852, Sigma Chemical) raised in rabbits against the synthetic sulfated CCK-8 was employed. […] The intra-assay coefficient of variation (CV) was 9% and the interassay CV was 27%, with a sensitivity of 2.5 pmol/l. The sensitivity of the assay relates to its reliable detection limit."}, "[1]": {"test": "Antropyloroduodenal (APD) pressures by manometry during intraduodenal infusion", "type": "in vivo, human", "source_text": "Subjects attended the laboratory at 0830 after fasting from 2200 the previous night from both solids and liquids. They were intubated with a 17-channel manometric catheter (Dentsleeve; Adelaide, South Australia, Australia) that was inserted through an anesthetized nostril and allowed to pass through the stomach and into the duodenum by peristalsis. The manometric catheter, which consisted of 16 sideholes spaced at 1.5-cm intervals, measures pressures in the antrum, pylorus, and duodenum. Six side holes (channels 1-6) were positioned in the antrum, a 4.5-cm sleeve sensor (channel 7), with two channels present on the back of the sleeve (channels 8 and 9), designed to measure pressure waves occurring over the entire pyloric region, were positioned across the pylorus, and seven channels were positioned in the duodenum (channels 10-16). An additional channel, used for intraduodenal infusions, was positioned 11.75 cm distal to the end of the sleeve sensor. The correct positioning of the catheter, so the sleeve sensor straddled the pylorus, was maintained by continuous measurement of the transmucosal potential difference (TMPD) between the most distal antral channel (channel 6; approximately −40 mV) and the most proximal duodenal channel (channel 10; ˜0 mV). For this purpose, an intravenous cannula filled with sterile saline was placed subcutaneously in the left forearm and used as a reference electrode. All manometric channels were perfused with degassed, distilled water except for the two TMPD channels, which were perfused with degassed 0.9% saline at 0.15 ml/min. An intravenous cannula was also placed into a right forearm vein for blood sampling to measure plasma CCK and GLP-1 concentrations.\nas §1\nAPD pressures. Manometric pressures were digitized, recorded on a computer-based system (PowerMac 7100/75, Apple Computers; Cupertino, Calif.) running commercially available software (HAD, Associate Prof. G S Hebbard, Melbourne, Australia) written in LabView 3.1.1 (National Instruments), and stored for subsequent analysis. APD pressures were analysed for 1) number and amplitude of isolated pyloric pressure waves (IPPWs) and pressure waves (PWs) in the antrum and duodenum and 2) number and length of PW sequences (PWSs) in the duodenum using custom-written software (Gastrointestinal Motility Unit; Utrecht, The Netherlands) modified to our requirements. […]"}, "[2]": {"tested_on": "pancreatic bicarbonate secretion", "conditions": "luminal fatty acid; cited from earlier work"}, "[3]": {"test": "Tolerability of intraduodenal fatty acid infusion (pilot study and randomized study)", "type": "in vivo, human", "description": "Fatty acid solutions were prepared using 5.3 g of commercially available food grade saturated free fatty acids, lauric (C12:0) and decanoic (C10:0) acid (Sigma-Aldrich; Milwaukee, Wis.). C12 was dissolved in 0.89 g NaOH (Sigma-Aldrich; St. Louis, Mo.) and distilled water to a total volume of 250 ml. C12 was maintained in solution by heating it to 37° C., with a resulting pH of 8.2. C10 was also dissolved in NaOH (1.21 g), and the pH of the C10 and control (distilled water) solutions was adjusted to 8.2 by the addition of NaOH. All solutions were prepared on the morning of the study and infused at 37° C. […] We chose to infuse the fatty acid and control solutions intraduodenally to ensure uniformity of doses across subjects and study days.\nHowever, during the C12 infusion, the first subject tested reported severe nausea and only tolerated the infusion for 30 min. A second subject, who again reported severe nausea, tolerated the infusion for 60 min."}, "[4]": {"conditions": "90 min infusion, compared with control"}}, "note": "Several values for one entry are separate records, joined by “and”; a condition that tells them apart may be missing. Equal values may be shown once."}
{"smiles": "CCCCCCCCCCCC(=O)O", "note": "[C12, lauric acid]", "values": [{"measurement": "plasma CCK concentrations", "setting": "plasma CCK; during 90 min infusion, compared with control", "value": "increased plasma CCK compared with control"}, {"measurement": "time of rapid rise in plasma CCK", "setting": "plasma CCK; from start of infusion, then plateaued", "value": "≤ 15", "unit": "min"}, {"measurement": "magnitude of the rise in plasma CCK", "setting": "plasma CCK; in the first 15 min of infusion, 0.375 kcal/min", "value": "~12", "unit": "pmol/L"}, {"measurement": "plasma CCK level relative to postprandial level", "setting": "plasma CCK; versus levels after the buffet meal following control infusion", "value": "comparable to postprandial levels after the control infusion"}, {"measurement": "basal pyloric pressure (tone)", "setting": "[1]; [4]", "value": "increased basal pyloric pressure"}, {"measurement": "number of antral PWs", "setting": "[1]; [4]", "value": "decreased the number of antral PWs compared with control"}, {"measurement": "number of duodenal PWs", "setting": "[1]; [4]", "value": "decreased the number of duodenal PWs"}, {"measurement": "number of IPPWs compared with control", "setting": "[1]; C12: 0-15, 15-30 and 30-45 min, C10: 0-15 min", "value": "increased the number of IPPWs"}, {"measurement": "length of antegrade peristalsis in the duodenum", "setting": "[1]; C12 infusion", "value": "did not abolish but did shorten"}, {"measurement": "onset of gastrointestinal effects", "setting": "[1]; C12 infusion 0.375 kcal/min", "value": "~15", "unit": "min"}, {"measurement": "amplitude of IPPWs compared with control", "setting": "[1]; between 0-15 and 15-30 min", "value": "increased the amplitude of IPPWs compared with control"}, {"measurement": "number of IPPWs compared with C10", "setting": "[1]; between 15-30 and 30-45 min", "value": "increased the number of IPPWs"}, {"measurement": "amplitude of IPPWs compared with control", "setting": "[1]; between 60 and 75 min", "value": "decreased the amplitude of IPPWs"}, {"measurement": "amplitude of IPPWs compared with C10", "setting": "[1]; between 75 and 90 min", "value": "decreased the amplitude of IPPWs"}, {"measurement": "number of duodenal PWSs travelling over three channels (3 to <4.5 cm)", "setting": "[1]; compared with C10", "value": "decreased the number of waves that travelled over three channels compared with C10"}, {"measurement": "amplitude of antral pressures", "setting": "[1]; compared with both C10 and control infusions, trend P=0.080", "value": "tended to be lower"}, {"measurement": "number of duodenal PWSs travelling over six channels (7.5 to <9 cm)", "setting": "[1]; compared with control", "value": "decreased the number of waves that travelled over six channels compared with control"}, {"measurement": "number of duodenal PWSs travelling over three channels (3 to <4.5 cm)", "setting": "[1]; compared with control", "value": "no difference between C12 or C10 and control"}, {"measurement": "number of duodenal PWSs travelling over two channels (1.5 to <3 cm)", "setting": "[1]; compared with control", "value": "decreased the number of waves that travelled over two channels compared with control"}, {"measurement": "number of waves that travelled over nine channels", "setting": "[1]; compared with control", "value": "decreased the number of waves that travelled over nine channels"}, {"measurement": "motor pattern on visual inspection of pressure traces", "setting": "[1]; intraduodenal infusion 0.375 kcal/min", "value": "antral and duodenal PWs were inhibited and pyloric pressures stimulated"}, {"measurement": "secretion of pancreatic bicarbonate relative to C10, C16, C18:0, C18:1 and C18:2", "setting": "[2]", "value": "more than twice as much"}, {"measurement": "time the infusion was tolerated", "setting": "[3]; pilot study, 0.75 kcal/min (n=1)", "value": "~60", "unit": "min"}, {"measurement": "time the infusion was tolerated", "setting": "[3]; pilot study, 1 kcal/min (n=1)", "value": "~60", "unit": "min"}, {"measurement": "adverse effect limiting the infusion", "setting": "[3]; pilot study, 1 kcal/min and 0.75 kcal/min", "value": "severe nausea and vomiting"}, {"measurement": "adverse effect limiting the infusion", "setting": "[3]; pilot study, 1.5 kcal/min", "value": "severe nausea"}, {"measurement": "time the infusion was tolerated", "setting": "[3]; pilot study, 1.5 kcal/min, individual subjects", "value": "30 min and 60 min"}, {"measurement": "time the infusion was tolerated", "setting": "[3]; randomized study, 0.375 kcal/min, one subject with severe nausea", "value": 30, "unit": "min"}]}
